{"source": "ChEMBL document CHEMBL1142494", "about": "“Pharmacophore modeling and molecular docking led to the discovery of inhibitors of human immunodeficiency virus-1 replication targeting the human cellular aspartic acid-glutamic acid-alanine-aspartic acid box polypeptide 3” (J Med Chem, 2008)", "note": "Active and inactive are the calls of the source. The calls are words filed in the database; no cut-off is given here."}
{"target": "Polynucleotide kinase (Enterobacteria phage T4) (UniProt P06855)", "sequence (P06855 whole entry)": "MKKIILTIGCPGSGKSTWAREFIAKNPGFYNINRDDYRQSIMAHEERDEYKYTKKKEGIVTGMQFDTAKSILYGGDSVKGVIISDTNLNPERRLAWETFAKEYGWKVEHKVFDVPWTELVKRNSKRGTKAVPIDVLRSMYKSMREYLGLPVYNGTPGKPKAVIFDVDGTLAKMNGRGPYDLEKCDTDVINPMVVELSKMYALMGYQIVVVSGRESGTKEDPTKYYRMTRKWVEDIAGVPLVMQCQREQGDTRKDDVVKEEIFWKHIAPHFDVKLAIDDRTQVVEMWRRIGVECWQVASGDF", "assay": "Inhibition of T4 polynucleotide kinase upto 100 uM", "details": "Tequatrovirus T4"}
{"smiles": "O=C(CCN1C(=O)/C(=C/c2cccc(Br)c2)SC1=S)Nc1ccccc1O", "Activity": "inactive"}
{"target": "ATP-dependent RNA helicase DDX3X (Homo sapiens) (UniProt O00571)", "sequence (O00571 2-662 limits assumed)": "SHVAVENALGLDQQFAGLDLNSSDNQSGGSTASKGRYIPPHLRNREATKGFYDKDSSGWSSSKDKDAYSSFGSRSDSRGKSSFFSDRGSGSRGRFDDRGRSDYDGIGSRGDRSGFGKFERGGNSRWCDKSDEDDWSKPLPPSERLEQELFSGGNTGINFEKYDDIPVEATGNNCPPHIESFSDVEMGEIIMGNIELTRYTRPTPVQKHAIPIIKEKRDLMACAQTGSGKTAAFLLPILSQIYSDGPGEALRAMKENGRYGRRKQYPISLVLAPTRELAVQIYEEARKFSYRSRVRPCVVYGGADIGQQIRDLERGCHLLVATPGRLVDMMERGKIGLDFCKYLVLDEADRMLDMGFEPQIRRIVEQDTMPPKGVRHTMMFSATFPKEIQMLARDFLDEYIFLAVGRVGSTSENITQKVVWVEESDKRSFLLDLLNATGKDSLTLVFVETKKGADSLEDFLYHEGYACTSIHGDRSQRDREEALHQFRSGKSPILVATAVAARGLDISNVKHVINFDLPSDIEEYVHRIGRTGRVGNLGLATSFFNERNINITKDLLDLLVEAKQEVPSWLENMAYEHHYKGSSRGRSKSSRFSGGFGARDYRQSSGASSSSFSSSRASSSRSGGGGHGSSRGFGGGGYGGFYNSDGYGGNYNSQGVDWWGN", "assay": "Inhibition of ATPase activity in human recombinant DDX3 expressed in Escherichia coli by luciferase-based luminescence assay in presence of ATP", "details": "not given"}
{"smiles": "N#C/C(=C\\c1ccc(-c2ccccc2[N+](=O)[O-])o1)c1nn(CCO)c(N)c1C#N", "Activity": "inactive"}
{"smiles": "N#C/C(=C\\c1ccc(-c2ccccc2Cl)o1)c1nn(-c2ccccc2)c(N)c1C#N", "Activity": "inactive"}
{"smiles": "O=C(CCN1C(=O)/C(=C/c2ccccc2Cl)SC1=S)Nc1ccccc1O", "Activity": "inactive"}
{"smiles": "COc1ccccc1NC(=O)CCN1C(=O)/C(=C/c2cccc(Br)c2)SC1=S", "Activity": "inactive"}
{"smiles": "O=C(CCN1C(=O)/C(=C/c2ccccc2)SC1=S)Nc1ccccc1O", "Activity": "inactive"}
{"smiles": "O=C(CCN1C(=O)/C(=C/c2ccccc2)SC1=S)Nc1cccc(O)c1", "Activity": "inactive"}
{"smiles": "Cc1ccc(/C=C2\\SC(=S)N(CCC(=O)Nc3ccccc3O)C2=O)cc1", "Activity": "inactive"}
{"smiles": "N#C/C(=C\\c1ccc(-c2ccc(C(=O)O)cc2)o1)c1n[nH]c(N)c1C#N", "Activity": "inactive"}
{"smiles": "O=C(CN1C(=O)/C(=C/c2cccc(Br)c2)SC1=S)Nc1cccc(O)c1", "Activity": "inactive"}
{"smiles": "Cc1ccc(-c2ccc(/C=C(\\C#N)c3n[nH]c(N)c3C#N)o2)c([N+](=O)[O-])c1", "Activity": "inactive"}
{"smiles": "Cc1ccc(/C=C2\\SC(=S)N(CCC(=O)Nc3cccc(Cl)c3O)C2=O)cc1", "Activity": "inactive"}
{"target": "Proto-oncogene tyrosine-protein kinase Src (Homo sapiens) (UniProt P12931)", "sequence (P12931 2-536 limits assumed)": "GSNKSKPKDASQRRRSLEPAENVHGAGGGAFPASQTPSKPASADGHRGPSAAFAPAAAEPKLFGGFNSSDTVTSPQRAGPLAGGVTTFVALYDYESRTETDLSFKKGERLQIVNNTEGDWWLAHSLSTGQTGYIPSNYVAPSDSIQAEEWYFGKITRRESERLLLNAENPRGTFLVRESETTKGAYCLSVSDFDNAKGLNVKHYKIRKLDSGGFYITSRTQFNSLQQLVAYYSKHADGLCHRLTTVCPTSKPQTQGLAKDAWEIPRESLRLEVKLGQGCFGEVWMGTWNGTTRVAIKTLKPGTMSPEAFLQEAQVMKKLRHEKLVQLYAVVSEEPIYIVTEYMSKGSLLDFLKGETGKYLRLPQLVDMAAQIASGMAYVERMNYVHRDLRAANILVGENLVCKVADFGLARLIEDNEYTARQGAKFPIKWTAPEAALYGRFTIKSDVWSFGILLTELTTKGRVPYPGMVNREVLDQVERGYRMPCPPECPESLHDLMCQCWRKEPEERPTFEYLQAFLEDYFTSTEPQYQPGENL", "assay": "Inhibition of c-Src upto 100 uM", "details": "not given"}
{"smiles": "O=C(CCN1C(=O)/C(=C/c2cccc(Br)c2)SC1=S)Nc1ccccc1O", "Activity": "inactive"}
{"test_system": "Hepacivirus hominis", "assay": "Inhibition of HCV NS3 ATPase/helicase upto 100 uM", "details": "not given"}
{"smiles": "O=C(CCN1C(=O)/C(=C/c2cccc(Br)c2)SC1=S)Nc1ccccc1O", "Activity": "inactive"}
